This is an account of results in patent publication US20060111335A1, “Photoactivated anti-viral and anti-cancer agent” (priority 2002, published 2006).

Data set [1] has as its system calf thymus DNA than BSA protein. In words: In vitro kinetic and thermodynamic studies of affinity, DNA versus protein. It counts as binding.
Data set [2] has as its system KB cells. Nature of the data set: Phototoxicity to KB tumor cells, MTT assay. On the technique in general: Tetrazolium dyes change colour on reduction, which living cells bring about.
Procedure: Photolysis with Tumor Cells. […] At the beginning of an experiment media was removed from all plates and the cells were washed with 1 mL of PBS or Hank's salt solution. Drug solution (2 mL) or buffer solution (2 mL) was added to each dish. […] Cells were incubated, with or without metal complex, for 4 hours. After incubation, the solutions were removed from the dishes and the dishes were washed with 1 mL of PBS or Hank's salt solution. A fresh 1 mL of PBS or Hank's salt solution was added to each dish and these were placed on a turntable that sat on the top part of the photolysis chamber. […] The plates were then incubated for 40-48 hours before a determination of the extent of cell toxicity by MTT assay.
Cells were incubated in 75 cm^2 culture flasks. They were grown in Dulbecco's Modified Eagles Medium (D-MEM) supplemented with 10% heat inactivated fetal bovine serum (FBS), 1% L-glutamine-penicillin-streptomycin and 1% amphotericin-B. When cells were not plated for use in an experiment, they were transferred when they were 75-100% confluent using the following procedure. Media was decanted from the flask. Cells were rinsed 1-2 times with 10 mL of Hank's Balanced salt solution. […] Trypsin-EDTA was then decanted and the cells were released from the wall of the flask by tapping the side of the flask. Released cells were suspended in 5 mL media and 1 mL of this suspension was placed in a new culture flasks containing 20 mL of fresh media. The remaining cells were discarded. A culture flask can be used for 3 transfers.
Usually 16-24 hours before a photolysis experiment, cells were plated in 35×10 mm tissue culture dishes and incubated at 37° C. until the experiment was begun. Cells were about 75-100% confluent in the 75 cm^2 culture flask when plated. After being washed and released from the flask as described above, cells were suspended in 40 mL media and 1.5 mL of suspension was placed in each dish.
The concentration of the solution was 70 μM.
The cell dishes were incubated with drug or Hanks balanced salt solution (1 mL) for 3 hours. After incubation, solutions were decanted from the plates and 1 mL of Hank's Balanced salt solution were placed in each. […] Following photolysis, Hank's Balanced salt solutions were decanted and 1 mL of fresh media was placed in each plate.
Plates were incubated for 65 hours and then analyzed for cell survival by MT assay. 5 mg/mL MTT solution in water was prepared and 100 μL of this solution was added to each plate and the plates were incubated for 1.5 hours. Purple crystals formed from live cells. Media was gently removed from plates using a Pasteur pipette, the purple crystals that remained at the bottom of the dish were dissolved in 6 mL of isopropanol.
Phototoxicity studies with long wavelength light (>400 nm). […]
Data set [3] has as its system cell membrane. In words: Cell uptake / passage through the cell membrane. As to the method:
OCTBP uptake by KB cells. 11 mg of OCTBP was dissolved in 40 mL of PBS buffer. The solution was vortex stirred for 5 minutes to completely dissolve the solid. The solution was sterile filtered through a 0.2μ nylon syringe filter. The concentration of the solution was determined by measuring the UV absorption at 353 nm (ε353nm=1565 M^−1cm^−1).
Once the cells were 75% confluent media was decanted from the flasks and 8 mL of drug solutions were added to three flasks and 8 mL of PBS buffer solution was added to the control flask. The flasks were incubated at 37° C. for 15, 30 and 45 minutes. Control flask was incubated for 45 minutes. When the flasks were removed, they were washed with 6×10 mL of PBS buffer solution. All the liquid was carefully decanted from the flasks. 1 mL of lysing buffer (1% triton X-100) was added to each of the four flasks. The walls of the flasks were rinsed using disposable pipettes. Once all the contents of the flasks were placed into a 1.5 mL disposable centrifuge tubes (each flask yielded ˜1.2 mL), the tubes were centrifuged at 6000 rpm and at 4° C. for 30 minutes on the Fisher Model 59V high-speed centrifuge. BCA Assay was done to establish the amount of cells in each flask.
Rh content of each flask was determined using an inductively coupled plasma (ICP) instrument (AtomScan16, Thermo Elemental, Franklin, Mass.). From each centrifuge tube 1 mL was pipetted and 370 μL of concentrated HCl was added to form a 10% solution. The samples were heated in a hot water bath at 70° C. for 30 minutes. The samples were centrifuged again and the supernatant liquid was diluted to 8 mL by adding nano-pure water. The samples were analyzed for Rh content by ICP.

Data set [4] can be described thus: Photodestruction (photoaquation) with visible light >500 nm, HPLC analysis. The conditions noted are these: 0.1 mM aqueous, 8 hours under argon. Format: physicochemical. As to the method: Aqueous solutions (3 mL, 0.1 mM) of the Rh complexes were irradiated for 8 hours under argon using a 450 W Hanovia medium pressure mercury lamp filtered through a uranium yellow glass (cut-off<330 nm) and a 1.5 cm 0.5% (w/v) aqueous solution of K2Cr2O7 (0% transmittance≦500 nm). Photodestruction of the metal complexes was followed by HPLC analysis.

Data set [5] concerns GN4 cells. Nature of the data set: Phototoxicity to GN4 tumor cells, MTT assay. Format: cell-based, canine. As to the method: (§1) Photolysis with Tumor Cells.
Media was decanted from the flask. […] Trypsin-EDTA was then decanted and the flask was incubated at 37° C. for 8 minutes. […] Released cells were suspended in 5 mL of media and shaken well. […] The remaining cells were discarded.
Cells were plated, incubated with the drug, and photolysis was conducted as for the KB cell lines.

In data set [6] the test system is Calf thymus DNA. Nature of the data set: Dark association with DNA, UV-Visible titration (Example XI). It counts as binding. The conditions noted are these: 50 mM pH 7 I=0.15 sodium phosphate buffer (physiological condition).
Procedure: Preparation of DNA solution. Calf thymus DNA (Sigma) was dissolved in 50 mM, pH 7, I=0.15 sodium phosphate buffer (Physiological condition) and sonicated. The purity of the DNA was checked by monitoring the absorption spectrum and the ratio of the absorbance at 260 to 280 nm. The ratio were within the acceptable purity margin (1.8±0.1). The concentration of the Calf thymus DNA per phosphate was determined spectrophotometrically: ε253=6600 for calf thymus DNA^1. The concentration was 2.13 E-3 M.
The resulting solution was diluted 4 times with phosphate buffer. […] 0, 50 μL, 150 μL, 200 μL, 300 μL, 350 μL and 500 μL of DNA solutions were added, mixed well with a small disposable needle, and spectra were recorded again. The concentration of the species, the apparent absorbance at 337 nm, and the apparent extinction coefficients at 337 nm were determined from the absorptions spectra and tabulated in Table 1.
The apparent binding constant, Kapp was determined from the plot of [DNA]/Δεapp versus [DNA], where Δεapp=εf−εapp and Δε=εf−εb^2, where εb and εf correspond to the extinction coefficient of the DNA-bound form of the OCTBP derivatives and the extinction coefficient of the DNA-unbound OCTBP derivatives, respectively. […] Cb=(εfCtotal−Aobserved)/Δε The concentration of the DNA-unbound OCTBP derivatives (Cf) can be determined by Cf=Ctotal−Cb […]
Data set [7] deals with M109 cells. Nature of the data set: Phototoxicity to M109 tumor cells, MTT assay. Format: cell-based, mouse. The conditions noted are these: OCTBP, 55 μM (FIG. 10). As to the method:
as §1
Procedures for cell maintenance, cell plating, drug incubation, photolysis and MTT assay are all same as that used for the KB cell lines. A small amount of dark toxicity was observed (about 15%). A considerable amount of killing occurs with light alone after 30 and 40 minutes of irradiation (FIG. 10).

Data set [8] concerns φX-174 plasmid DNA. Nature of the data set: Photonicking of φX-174 plasmid DNA, gel electrophoresis. Format: biochemical. To be noted: Example IX, dark and upon exposure to light. As to the method: Photolysis with φX-174 Plasmid DNA. Metal complex solutions (with or without quenchers) were saturated with oxygen or argon prior to irradiation. The solutions were further degassed after being mixed with the plasmid. The final solution concentrations were: DPPZPHEN ([…]), φX-174 plasmid DNA (205 μM in base pairs), superoxide dismutase (25 μg/mL), 2-propanol (0.5 M), mannitol (6.25 mM), histidine (8 mM).
Experiments were conducted as described in Example X to evaluate the amount photonicking that occurred in the dark and upon exposure to light for 37TMBP, 56TMBP, OCTBP, BISNMe2, TMOBP, TIOBP, TPBP, BISTAP and BISDPPZ.

Data set [9] can be described thus: Dark thermal aquation and thermal base hydrolysis. The conditions noted are these: 80° C. with 10% NaOH. Format: physicochemical. The source says:
A dissociation/addition mechanism is generally accepted as responsible for the substitution chemistry associated with a hexacoordinated Rh(III) ligand field triplet (Weiland et al., Inorg. Chem., 25:4893 (1986)). The dissociation step is due to the promotion of an electron from the t2g orbital to the eg orbital, which leads to significant weakening of the metal ligand bonds. (Hipps et al., Inorg. Chem., 13:1544 (1974)).

Data set [10] can be described thus: Reversed phase HPLC elution on C8 column as measure of hydrophobicity. It counts as physicochemical. To be noted: 45% acetonitrile in 100 mM ammonium acetate pH 5.4. As to the method: Reversed phase high performance liquid chromatography (RP-HPLC) was carried out on C8 columns. Compounds were tested using 20%, 30% and 45% acetonitrile in 100 mM ammonium acetate at pH 5.4 for elution on a C8 column, with the intention of achieving an elution time of about 15 minutes. It was expected that the more hydrophobic a compound, the higher the acetonitrile content one would need for the eluent.

Data set [11] relates to cells. In words: Phototoxicity, summary statement of Example XII. Format: cell-based.
Data set [12] relates to cell. To be noted: cited from earlier work.
Data set [13] deals with Sindbis virus. The conditions noted are these: cited from earlier work.
For data set [14] the following is noted: cited from earlier work.
Data set [15] concerns nucleic acid. To be noted: cited from earlier work.
The subject of data set [16] is protein. The conditions noted are these: cited from earlier work.
Data set [17] has as its system bacteriophage φ6. To be noted: cited from earlier work.
In data set [18] the test system is DNA. To be noted: dark; cited from earlier work.

Like-named read-outs stand apart in the source and are kept apart here.

For the compound `CC1=C[N]2c3c4c(ccc3=C1C)=C(C)C(C)=C[N]4[Rh+]21([Cl])([Cl])[N]2C=C(C)C(C)=c3ccc4c(c32)[N]1C=C(C)C=4C.[Cl-]` [OCTBP, cis-dichlorobis(3,4,7,8-tetramethyl-1,10-phenanthroline) rhodium(III) chloride], the “affinity toward calf thymus DNA compared with BSA protein” value in data set [1] is listed as “greater affinity toward calf thymus DNA than BSA protein”. The cell death came to 40% in data set [2] (OCTBP 55 μM, >400 nm light, 60 minutes) and 25% in [5] (OCTBP 63 μM, >400 nm light, 60 minutes). Besides, the dark toxicity entry in data set [2] (OCTBP 70 μM) is “dark toxicity wasn't observed”; in [2] (OCTBP 80 μM) it was “considerable amount of dark toxicity”; in data set [7] it was “about 15%”. In data set [3], the “ability to pass through the cell membrane” value was “able to pass through the cell membrane”. This compound also registered a photodestruction in data set [4] of 9.3 % loss. In data set [5] (OCTBP 55 μM, 311 nm), the photo-cell death result is listed as “no photo-cell death occurred”. For the same compound, the photo-initiated cell death entry in data set [5] (OCTBP 75 μM, 311 nm, 40 minutes) is recorded as “about 20%”. Besides, in data set [6], the “apparent (intrinsic) binding constant Kapp” value was 4.25 E3 M. In data set [8], the “photonicking of φX-174 plasmid DNA” value was “Only TPBP, BISTAP, BISDPPZ and BISDPPHEN complexes were found to photonick”. In data set [9], the “thermal hydrolysis, rank order” value is “OCTBP≅37TMBP>BISPHEN”. The elution time entry in data set [10] was “about 15 minutes”. Besides, the phototoxicity result in data set [11] is reported as “are phototoxic”.

As for `[Cl-].[Cl][Rh+]12([Cl])([N]=c3c(c4ccccc4c4ccccc34)=[N]1)[N]1C=CC=c3ccc4c(c31)[N]2C=CC=4` [PHENPHI, cis-dichloro(1,10-phenanthroline)(9,10-phenathrenequinone diimine)rhodium(III) chloride], the photoinduced cell death entry in [12] is given as “substantial photoinduced cell death”. Also, in [12] (without liposomes), the “penetration of the cell membrane” value was “does not require liposomes to penetrate the cell membrane”. Further, in [13], the “phototoxicity / virucidal activity against Sindbis virus” value is listed as “potent virucidal activity”. For the same compound, the stability result is reported as “decomposing” in data set [14] (37° C., phosphate-buffered saline (PBS) pH 7) and “decomposing” in [14] (room temperature, Tris buffer pH 7). For the same compound, in [14] (acetate buffer pH 5), the ligand exchange entry was “readily substitutes acetate for chloride ligand”. Further, the photonuclease activity entry in [15] is on record as “exhibited photonuclease activity”. For the same compound, the “covalent binding to nucleic acid upon irradiation” value in data set [15] (irradiated with light) is “covalently binds to DNA”. Also, in data set [16], the “binding affinity for protein” value was “substantial binding affinity for protein”. The “activity against bacteriophage φ6” value in data set [17] is reported as “potent virucidal activity”. Moreover, the “Keq of dark association with DNA” value in data set [18] was 37000 M⁻¹.
